# Results taken from US8853359B2, “Endokinin C/D-derived peptides” (University of Miyazaki, priority 2009, dated 2014).
# Tests used:
# [1] = system: carrageenan-induced thermal hyperalgesia; assay: withdrawal latency to noxious thermal stimulation after carrageenan, intrathecal pre-administration of peptide; assay type: in vivo, rat; conditions: 10^-3M (10 nmol/10 μl) peptide intrathecal; 2% carrageenan 4 hours later; FIG. 9B
# Experimental: In Example 6, 10^−3M (10 nmol/10 μl) D-EKC/D (3), (5), or (7), Spantide I, or saline (10 μl) was administered to intrathecally catheterized rats via catheters. Four hours later, 100 μl of 2% carrageenan (2 mg/100 μl) was subcutaneously administered to rat plantar.
# Meanwhile, noxious thermal stimulation was applied to paw plantar using infrared rays at 10-minute intervals after carrageenan administration. The time (latency period) required for withdrawal response to take place was measured. The latency period before untreated rats following noxious thermal stimulation was designated as the control latency period.
# [2] = system: formalin-induced pain behavior; assay: formalin-induced pain behavior (flinching) after intrathecal pre-administration of peptide; assay type: in vivo, rat
# Experimental: In Example 5, 10^−3M (10 nmol/10 μl) D-EKC/D (3), (5), or (7), Spantide I, or saline (10 μl) was administered to intrathecally catheterized rats via catheters and then 4 hours later, 50 μl of 2% formalin was administered subcutaneously to hind paws of rats. The number of flinching (pain behavior) was determined for 60 minutes after formalin administration, so that the degree of pain could be evaluated. During the 10-minute period after formalin administration (referred to as phase I), pain behavior was measured once every 2 minutes (1 minute per measurement). During the period from 10 minutes to 60 minutes after formalin administration (referred to as phase II), pain behavior was measured once every 5 minutes (1 minute per measurement), so that the degree of pain could be evaluated. During phase I, behavior (phasic pain) resulting from chemical stimulation accompanying formalin administration was observed. During phase II, tonic pain following the phasic pain was observed.
# The horizontal axis indicates time (minutes) after formalin administration and the vertical axis indicates the measured number of pain behavior per minute.
substance,measurement,setting,value
Ala-Tyr-Gln-Leu-Glu-His-Thr-Phe-Gln-DTrp-Leu-Leu-NH2 (AYQLEHTFQXLL; HELM PEPTIDE1{A.Y.Q.L.E.H.T.F.Q.[dW].L.L.[am]}$$$$V2.0; N-terminus assumed; SMILES CC(C)C[C@H](NC(=O)[C@H](CC(C)C)NC(=O)[C@@H](Cc1c[nH]c2ccccc12)NC(=O)[C@H](CCC(N)=O)NC(=O)[C@H](Cc1ccccc1)NC(=O)[C@@H](NC(=O)[C@H](Cc1c[nH]cn1)NC(=O)[C@H](CCC(=O)O)NC(=O)[C@H](CC(C)C)NC(=O)[C@H](CCC(N)=O)NC(=O)[C@H](Cc1ccc(O)cc1)NC(=O)[C@H](C)N)[C@@H](C)O)C(N)=O) [D-EKC/D (3)],withdrawal time (latency period),[1],significant increases
same,numbers of pain behavior during phase I,"[2]; 10^-3M (10 nmol/10 μl) peptide intrathecal, 2% formalin 4 hours later, 0-10 minutes after formalin",significantly decreased
same,numbers of pain behavior during phase II,"[2]; 10^-3M (10 nmol/10 μl) peptide intrathecal, 2% formalin 4 hours later, 10-60 minutes after formalin",significantly decreased
same,suppressing effects on formalin-induced pain behavior compared with Spantide I,"[2]; 10^-3M intrathecal, formalin 4 hours later",sustained longer compared with the effects of Spantide I
